The text below walks through data of patent US20190380964A1, “METHODS AND COMPOSITIONS FOR MAKING AND USING NANOTHERAPEUTIC DRUG DELIVERY VEHICLES” (GEORGE MASON UNIVERSITY, priority 2018, published 2019).

Test [1] deals with MDA-MB-231 cells. Put plainly: WST-1 proliferation / viability of MDA-MB-231 cells exposed to targeted DXR liposomes. In kind it is cell-based. To be noted: 8 or 24 hours exposure, evaluated over 3 days. The protocol: In an alternate embodiment, MDA-MB-231 cells were grown in DMEM containing 10% FBS and 1× Penicillin-Streptomycin solution. The cells were cultured at 70% confluence and plated in a 96 well plate at a density of 5×10^4 cells/well. The cells were incubated undisturbed for two days prior to any experimentation. Liposomal suspensions were UV sterilized prior to introduction to cell cultures. On the second day, the liposomal carriers containing DXR were introduced to the cultures at the EC-50 of DXR (0.01 μM21). Proliferating cells were quantified and normalized by the control using WST-1 proliferation assay.
Liposomes were incubated with DXR (17.2 mM) and DSPE-PEG-MAL (0.1 mol %) for 1 hour. The suspension was then purified using spin columns and incubated overnight with CD44 antibodies as described in the methods. Targeted liposomes were introduced to cultures of MDA-MB-231 cells and allowed to interact for 8 hours or 24 hours prior to being washed. […] Viability was analyzed over 72 hours using WST-1 as an indicator of proliferation and normalized to a media only control (e.g., as is illustrated in FIG. 8D).

Test [2] relates to MDA-MB-231 cells. To be noted: concentration at which DXR liposomal carriers were introduced; read-out: EC-50 of DXR; cited from earlier work.

Regarding `COc1cccc2c1C(=O)c1c(O)c3c(c(O)c1C2=O)C[C@@](O)(C(=O)CO)C[C@@H]3O[C@H]1C[C@H](N)[C@H](O)[C@H](C)O1` [DXR, doxorubicin], in the test on MDA-MB-231 cells [1], the “cancer cell viability (result in words, FIG. 8D)” value is “demonstrated efficacy in reducing cancer cell viability”. For the same compound, the EC50 in the test with MDA-MB-231 cells [2] was 10 nM.
